In patent US8124382B2, “Methods, microarray, and kits for detection of drug resistance genes in gram-negative bacteria” (CapitalBio Corporation, priority 2006, dated 2012):

Experiments:
Assay in all cases: in vitro antimicrobial susceptibility test (MIC, CLSI standard method)
[1] = system: K. pneumoniae BJ-35; format: cell-based, Klebsiella pneumoniae; conditions: for The in vitro antimicrobial susceptibility test/MIC: strain BJ-35 (K. pneumoniae), CLA at fixed concentration 4 μg/ml in combinations
Procedure: (§1) Three gram-negative bacteria in Table 3 were tested. The in vitro antimicrobial susceptibility result was obtained according to the standard method of Clinical and Laboratory Standards Institute (CLSI).

[2] = system: K. pneumoniae BJ-7; format: cell-based, Klebsiella pneumoniae; conditions: for The in vitro antimicrobial susceptibility test/MIC: strain BJ-7 (K. pneumoniae), CLA at fixed concentration 4 μg/ml in combinations
Procedure: as §1

[3] = system: K. pneumoniae E298; format: cell-based, Klebsiella pneumoniae; conditions: for The in vitro antimicrobial susceptibility test/MIC: strain E298 (K. pneumoniae), CLA at fixed concentration 4 μg/ml in combinations
Procedure: as §1

[4] = system: E. coli Z302; format: cell-based; conditions: for The in vitro antimicrobial susceptibility test/MIC: strain Z302 (E. coli), CLA at fixed concentration 4 μg/ml in combinations
Procedure: as §1
(§2) The resistance genes in E. coli Z302 were detected using the microarray in FIG. 1 according to the method in Example 1. […] Thus the kit for detection of resistance genes in gram-negative bacteria in the present invention can be used to specifically detect the resistance genes in the prevalent gram-negative bacteria E. coli.

[5] = system: E. cloacae TR3104; format: cell-based; conditions: strain TR3104; for The in vitro antimicrobial susceptibility test/MIC: CLA at fixed concentration 4 μg/ml in combinations
Procedure: as §1
as §2, with “cloacae TR3104” for “coli Z302”, “example” for “Example”, “cloacae.” for “coli.”

[6] = strain BJ-35, shown by microarray-detected genes, consistent with MIC results
[7] = strain BJ-7, shown by microarray-detected genes, consistent with MIC results
[8] = strain E298, shown by microarray-detected genes, consistent with MIC results
[9] = strain Z302, shown by microarray-detected genes, consistent with MIC results

Structure (SMILES)	The in vitro antimicrobial susceptibility test/MIC [3]	The in vitro antimicrobial susceptibility test/MIC [4]	The in vitro antimicrobial susceptibility test/MIC [5]	The in vitro antimicrobial susceptibility test/MIC [1]	The in vitro antimicrobial susceptibility test/MIC [2]	resistance or susceptibility of the isolate [1, 6]	resistance or susceptibility of the isolate [2, 7]	resistance or susceptibility of the isolate [3, 8]	resistance or susceptibility of the isolate [4, 9]	resistance or susceptibility of the isolate ([5]; shown by microarray-detected genes, consistent with MIC results)	inhibition of the isolate's resistance by clavulanate [1, 6]	inhibition of the isolate's resistance by clavulanate [2, 7]	inhibition of the isolate's resistance by clavulanate [3, 8]	inhibition of the isolate's resistance by clavulanate [4, 9]
CC(C)(O/N=C(\C(=O)N[C@@H]1C(=O)N2C(C(=O)[O-])=C(C[n+]3ccccc3)CS[C@H]12)c1csc(N)n1)C(=O)O [CAZ, ceftazidime]	≧128 μg/ml	≧128 μg/ml	4 µg/mL	4 µg/mL	32 µg/mL	–	–	–	–	–	–	–	–	–
CO[C@@]1(NC(=O)Cc2cccs2)C(=O)N2C(C(=O)O)=C(COC(N)=O)CS[C@@H]21 [FOX, cefoxitin]	≧128 μg/ml	≧128 μg/ml	≧256 μg/ml	2 µg/mL	8 µg/mL	susceptible	susceptible	resistant	resistant	resistant	–	–	–	–
O=C(O)[C@H]1/C(=C/CO)O[C@@H]2CC(=O)N21 [clavulanate]	–	–	–	–	–	–	–	–	–	–	inhibited	inhibited	not inhibited	not inhibited

Second part, led by results:

The in vitro antimicrobial susceptibility test/MIC [3]	The in vitro antimicrobial susceptibility test/MIC [4]	The in vitro antimicrobial susceptibility test/MIC [5]	Structure (SMILES)	The in vitro antimicrobial susceptibility test/MIC [1]	The in vitro antimicrobial susceptibility test/MIC [2]	resistance or susceptibility of the isolate [1, 6]	resistance or susceptibility of the isolate [2, 7]	resistance or susceptibility of the isolate [3, 8]	resistance or susceptibility of the isolate [4, 9]	resistance or susceptibility of the isolate ([5]; shown by microarray-detected genes, consistent with MIC results)	inhibition of the isolate's resistance by clavulanate [1, 6]	inhibition of the isolate's resistance by clavulanate [2, 7]	inhibition of the isolate's resistance by clavulanate [3, 8]	inhibition of the isolate's resistance by clavulanate [4, 9]
≧128 μg/ml	≧128 μg/ml	64 µg/mL	CO/N=C(\C(=O)N[C@@H]1C(=O)N2C(C(=O)O)=C(COC(C)=O)CS[C@H]12)c1csc(N)n1 [CTX, cefotaxime]	8 µg/mL	64 µg/mL	–	–	–	–	–	–	–	–	–
<0.5 µg/mL	4 µg/mL	4 µg/mL	C[C@@H](O)[C@H]1C(=O)N2C(C(=O)O)=C(SCCN=CN)C[C@H]12 [IMP, imipenem]	<0.5 µg/mL	<0.5 µg/mL	–	–	–	–	–	–	–	–	–
